Assay results as given in ChEMBL document CHEMBL3885861, “Open TG-GATES”.

Organism: Rattus norvegicus
Assay: Open TG-GATES - Regimen: Daily Repeat
Format: toxicity, organism-based, Sprague-Dawley
Parameters: regimen Daily Repeat, gender Male, age 6 weeks
Conditions: in vivo, po, route gavage; for APTT / Bas / Eos / Fbg / Hb / Ht / Lym / MCH / MCHC / MCV / Mono / Neu / PT / Plat / RBC / Ret / WBC: tissue Blood; for KIDNEY_L / KIDNEY_R / KIDNEY_TOTAL: tissue Kidney; for LIVER: tissue Liver; for A/G / ALP / ALT / AST / BUN / CRE / Ca / Cl / DBIL / GLC / IP / K / LDH / Na / PL / RALB / TBIL / TC / TG / TP / gamma-GTP: tissue Plasma
[1] = 0 mg/kg, 72 h, dose level Control, time 3 day
[2] = 0 mg/kg, […], dose level Control, time 7 day
[3] = 0 mg/kg, […], dose level Control, time 14 day
[4] = 0 mg/kg, […], dose level Control, time 28 day
[5] = 30 mg/kg, 72 h, dose level Low, time 3 day
[6] = 30 mg/kg, […], dose level Low, time 7 day
[7] = 30 mg/kg, […], dose level Low, time 14 day
[8] = 30 mg/kg, […], dose level Low, time 28 day

## CC(=O)Nc1ccc2c(c1)Cc1ccccc1-2 [2-ACETYLAMINOFLUORENE]
[1]
  TERMINAL_BW: 245.3 g
  APTT: 19.9 s
  Bas: 1%
  Eos: 1.2%
  Fbg: 227.2 mg/dL
  Hb: 14 g/dL
  Ht: 40.4%
  Lym: 82.2%
  MCH: 21.5 pg
  MCHC: 34.6%
  MCV: 62.3 fL
  Mono: 3%
  Neu: 12.6%
  PT: 11.3 s
  Plat: 127 x10_4/uL
  RBC: 648.4 x10_4/ul
  Ret: 5.8%
  WBC: 105.6 x10_2/uL
  KIDNEY_L: 1.1 g
  KIDNEY_R: 1.1 g
  KIDNEY_TOTAL: 2.2 g
  LIVER: 12.2 g
  A/G: 1.6
  ALP: 913.6 IU/L
  ALT: 38.2 IU/L
  AST: 73.2 IU/L
  BUN: 15.2 mg/dL
  CRE: 0.5 mg/dL
  Ca: 11 mg/dL
  Cl: 101.8 meq/L
  DBIL: 0.1 mg/dL
  GLC: 208.4 mg/dL
  IP: 8 mg/dL
  K: 4.1 meq/L
  LDH: 217.2 IU/L
  Na: 141.2 meq/L
  PL: 163 mg/dL
  RALB: 3.6 g/dL
  TBIL: 0.2 mg/dL
  TC: 81.8 mg/dL
  TG: 104.6 mg/dL
  TP: 5.8 g/dL
  gamma-GTP: 1.2 IU/L
[2]
  TERMINAL_BW: 278.1 g
  APTT: 19.7 s
  Bas: 0.4%
  Eos: 1%
  Fbg: 242 mg/dL
  Hb: 14.1 g/dL
  Ht: 39.9%
  Lym: 82.8%
  MCH: 21.9 pg
  MCHC: 35.2%
  MCV: 62.1 fL
  Mono: 2.4%
  Neu: 13%
  PT: 11.7 s
  Plat: 138.4 x10_4/uL
  RBC: 643 x10_4/ul
  Ret: 5.6%
  WBC: 114.7 x10_2/uL
  KIDNEY_L: 1.2 g
  KIDNEY_R: 1.2 g
  KIDNEY_TOTAL: 2.4 g
  LIVER: 12.4 g
  A/G: 1.4
  ALP: 914.8 IU/L
  ALT: 35.8 IU/L
  AST: 65 IU/L
  BUN: 13.6 mg/dL
  CRE: 0.4 mg/dL
  Ca: 10.7 mg/dL
  Cl: 103.2 meq/L
  DBIL: 0.076 mg/dL
  GLC: 201.2 mg/dL
  IP: 7.5 mg/dL
  K: 4.1 meq/L
  LDH: 188 IU/L
  Na: 140.4 meq/L
  PL: 136.4 mg/dL
  RALB: 3.4 g/dL
  TBIL: 0.1 mg/dL
  TC: 64.8 mg/dL
  TG: 96.2 mg/dL
  TP: 5.7 g/dL
  gamma-GTP: 1.4 IU/L
[3]
  TERMINAL_BW: 334.5 g
  APTT: 21 s
  Bas: 0.8%
  Eos: 1%
  Fbg: 225.8 mg/dL
  Hb: 14.7 g/dL
  Ht: 42.3%
  Lym: 82.8%
  MCH: 20.5 pg
  MCHC: 34.7%
  MCV: 59 fL
  Mono: 2.2%
  Neu: 12.6%
  PT: 11.8 s
  Plat: 117.3 x10_4/uL
  RBC: 716.4 x10_4/ul
  Ret: 4%
  WBC: 96.8 x10_2/uL
  KIDNEY_L: 1.3 g
  KIDNEY_R: 1.3 g
  KIDNEY_TOTAL: 2.6 g
  LIVER: 14.9 g
  A/G: 1.4
  ALP: 880.2 IU/L
  ALT: 35 IU/L
  AST: 64.4 IU/L
  BUN: 15.4 mg/dL
  CRE: 0.5 mg/dL
  Ca: 10.7 mg/dL
  Cl: 103.4 meq/L
  DBIL: 0.1 mg/dL
  GLC: 196.2 mg/dL
  IP: 7.3 mg/dL
  K: 4.1 meq/L
  LDH: 169.6 IU/L
  Na: 141.6 meq/L
  PL: 143.2 mg/dL
  RALB: 3.5 g/dL
  TBIL: 0.2 mg/dL
  TC: 69.6 mg/dL
  TG: 138 mg/dL
  TP: 5.9 g/dL
  gamma-GTP: 1.2 IU/L
[4]
  TERMINAL_BW: 417 g
  APTT: 20.8 s
  Bas: 0.8%
  Eos: 1%
  Fbg: 215.8 mg/dL
  Hb: 14.9 g/dL
  Ht: 43%
  Lym: 82.4%
  MCH: 19.8 pg
  MCHC: 34.7%
  MCV: 57.1 fL
  Mono: 2.2%
  Neu: 13.2%
  PT: 11.6 s
  Plat: 104.4 x10_4/uL
  RBC: 752.2 x10_4/ul
  Ret: 2.6%
  WBC: 122.5 x10_2/uL
  KIDNEY_L: 1.5 g
  KIDNEY_R: 1.5 g
  KIDNEY_TOTAL: 3 g
  LIVER: 16.7 g
  A/G: 1.4
  ALP: 611.4 IU/L
  ALT: 30.8 IU/L
  AST: 61.8 IU/L
  BUN: 19 mg/dL
  CRE: 0.4 mg/dL
  Ca: 10.4 mg/dL
  Cl: 102.4 meq/L
  DBIL: 0.092 mg/dL
  GLC: 265 mg/dL
  IP: 7.2 mg/dL
  K: 3.8 meq/L
  LDH: 194.4 IU/L
  Na: 140.4 meq/L
  PL: 143.4 mg/dL
  RALB: 3.4 g/dL
  TBIL: 0.1 mg/dL
  TC: 69.8 mg/dL
  TG: 107.8 mg/dL
  TP: 5.8 g/dL
  gamma-GTP: 1 IU/L
[5]
  TERMINAL_BW: 222.5 g
  APTT: 18.9 s
  Bas: 0.6%
  Eos: 1%
  Fbg: 226.6 mg/dL
  Hb: 14.8 g/dL
  Ht: 42.2%
  Lym: 81%
  MCH: 22.3 pg
  MCHC: 35%
  MCV: 63.7 fL
  Mono: 2.8%
  Neu: 14%
  PT: 12.3 s
  Plat: 131.4 x10_4/uL
  RBC: 663 x10_4/ul
  Ret: 4.1%
  WBC: 118 x10_2/uL
  KIDNEY_L: 1 g
  KIDNEY_R: 1 g
  KIDNEY_TOTAL: 2 g
  LIVER: 10.6 g
  A/G: 1.5
  ALP: 746.6 IU/L
  ALT: 26.6 IU/L
  AST: 69.2 IU/L
  BUN: 12.4 mg/dL
  CRE: 0.4 mg/dL
  Ca: 10.3 mg/dL
  Cl: 102.8 meq/L
  DBIL: 0.086 mg/dL
  GLC: 196.4 mg/dL
  IP: 7.2 mg/dL
  K: 4.1 meq/L
  LDH: 241 IU/L
  Na: 140.2 meq/L
  PL: 100.8 mg/dL
  RALB: 2.9 g/dL
  TBIL: 0.1 mg/dL
  TC: 50.2 mg/dL
  TG: 77 mg/dL
  TP: 5 g/dL
  gamma-GTP: 1.2 IU/L
[6]
  TERMINAL_BW: 239.2 g
  APTT: 18.4 s
  Bas: 0.8%
  Eos: 1%
  Fbg: 204 mg/dL
  Hb: 15.4 g/dL
  Ht: 42.8%
  Lym: 82%
  MCH: 22.2 pg
  MCHC: 35.9%
  MCV: 61.9 fL
  Mono: 3%
  Neu: 12.6%
  PT: 13 s
  Plat: 159.6 x10_4/uL
  RBC: 692.2 x10_4/ul
  Ret: 1.8%
  WBC: 125.9 x10_2/uL
  KIDNEY_L: 1 g
  KIDNEY_R: 1 g
  KIDNEY_TOTAL: 2 g
  LIVER: 10.5 g
  A/G: 1.4
  ALP: 1055.8 IU/L
  ALT: 35 IU/L
  AST: 88 IU/L
  BUN: 13.8 mg/dL
  CRE: 0.5 mg/dL
  Ca: 10.2 mg/dL
  Cl: 105.2 meq/L
  DBIL: 0.096 mg/dL
  GLC: 182.2 mg/dL
  IP: 6.4 mg/dL
  K: 3.9 meq/L
  LDH: 271 IU/L
  Na: 140.2 meq/L
  PL: 110.6 mg/dL
  RALB: 2.6 g/dL
  TBIL: 0.2 mg/dL
  TC: 44.4 mg/dL
  TG: 115 mg/dL
  TP: 4.4 g/dL
  gamma-GTP: 1.6 IU/L
[7]
  TERMINAL_BW: 259.1 g
  APTT: 19.1 s
  Bas: 1%
  Eos: 0%
  Fbg: 102.2 mg/dL
  Hb: 14.7 g/dL
  Ht: 42%
  Lym: 79.8%
  MCH: 19.7 pg
  MCHC: 35%
  MCV: 56.3 fL
  Mono: 3.2%
  Neu: 15.6%
  PT: 14.9 s
  Plat: 144.2 x10_4/uL
  RBC: 747.2 x10_4/ul
  Ret: 1.8%
  WBC: 145.6 x10_2/uL
  KIDNEY_L: 1.1 g
  KIDNEY_R: 1.1 g
  KIDNEY_TOTAL: 2.2 g
  LIVER: 9.9 g
  A/G: 1.3
  ALP: 1040.6 IU/L
  ALT: 42 IU/L
  AST: 98.6 IU/L
  BUN: 13 mg/dL
  CRE: 0.5 mg/dL
  Ca: 9.4 mg/dL
  Cl: 104.6 meq/L
  DBIL: 0.5 mg/dL
  GLC: 171 mg/dL
  IP: 7.1 mg/dL
  K: 3.9 meq/L
  LDH: 211.2 IU/L
  Na: 141.2 meq/L
  PL: 102.4 mg/dL
  RALB: 2.2 g/dL
  TBIL: 0.7 mg/dL
  TC: 40.8 mg/dL
  TG: 43.8 mg/dL
  TP: 3.8 g/dL
  gamma-GTP: 1.4 IU/L
[8]
  TERMINAL_BW: 315.1 g
  APTT: 25.4 s
  Bas: 0.8%
  Eos: 0.6%
  Fbg: 78.2 mg/dL
  Hb: 14 g/dL
  Ht: 40.8%
  Lym: 67.6%
  MCH: 19 pg
  MCHC: 34.3%
  MCV: 55.4 fL
  Mono: 4.2%
  Neu: 26.4%
  PT: 19.2 s
  Plat: 102.7 x10_4/uL
  RBC: 735.6 x10_4/ul
  Ret: 5.3%
  WBC: 274.6 x10_2/uL
  KIDNEY_L: 1.3 g
  KIDNEY_R: 1.3 g
  KIDNEY_TOTAL: 2.6 g
  LIVER: 10.2 g
  A/G: 1
  ALP: 883 IU/L
  ALT: 57.8 IU/L
  AST: 155.4 IU/L
  BUN: 17.2 mg/dL
  CRE: 0.4 mg/dL
  Ca: 8.5 mg/dL
  Cl: 103.6 meq/L
  DBIL: 3 mg/dL
  GLC: 130.6 mg/dL
  IP: 6.8 mg/dL
  K: 4.2 meq/L
  LDH: 252.2 IU/L
  Na: 140.2 meq/L
  PL: 120.2 mg/dL
  RALB: 1.7 g/dL
  TBIL: 3.8 mg/dL
  TC: 60.2 mg/dL
  TG: 30.2 mg/dL
  TP: 3.4 g/dL
  gamma-GTP: 25.4 IU/L
